What was measured:
[1] = tested on: MDA-MB231; assay: TNBC MDA-MB231 xenograft in humanized BLT mice; assay type: in vivo, humanized mouse; details: single agent arm, compared to isotype control
Experimental: • I. Tumor models: The role of IL-1β in tumor immunity and efficacy of IL-1β blocking antibodies were tested in the following preclinical models: • Xenograft tumors in humanized mouse models: NSCLC (H358), TNBC (MDA-MB231) and CRC (SW480) • Syngeneic tumor models: TNBC (4T1) and lung (LL-2) cancer • II. […] Combination treatments include chemotherapeutic agent, docetaxel (6.25 mg/Kg QW IV), PD-1 pathway inhibitors (anti-human PD-1, pembrolizumab 10 mg/Kg Q5D IP or anti-mouse PD-1, clone 1D2 10 mg/Kg QW IP) and anti-mouse VEGF blocking antibody (clone 4G3, 5 mg/Kg Q5D) were used in combination with anti-IL-1β antibody. Appropriate isotype controls were used. In all experiments, dosing was initiated after tumor implantation. • III. Experimental readouts: activity of therapeutic agents in preclinical models were assessed by the following: • Tumor volume was determined by measurement with calipers throughout the course of the study. Tumor weights in milligrams were determined at end of study • Immunohistochemistry analysis was performed on FFPE NSCLC (H358) xenograft tissue • Changes in immune populations in peripheral blood in CRC (SW480) xenograft humanized model and tumors in syngeneic models (4T1 and LL-2) were assessed by flow cytometry using markers for T cell, myeloid populations

[2] = tested on: MDA-MB-231Luc2-TdTomato cells; assay: Spontaneous human breast cancer metastasis to human bone implants; assay type: in vivo, NOD SCID mice
Experimental: FIG. 4. Pharmacological blockade of IL-1B inhibits spontaneous metastasis to human bone in vivo. Female NOD-SCID mice bearing two 0.5 cm^3 pieces of human femoral bone received intra-mammary injections of MDA-MB-231Luc2-TdTomato cells. […] All animals were culled 35 days following tumour cell injection. Effects on bone metastases (a) were assessed in vivo and immediately post-mortem by luciferase imaging and confirmed ex vivo on histological sections. Data are shown as numbers of photons per second emitted 2 minutes following sub-cutaneous injection of D-luciferin. Effects on numbers of tumour cells detected in the circulation are shown in (b). *=P<0.01. **=P<0.001. ***=P<0.0001.
To model human breast cancer metastasis to human bone implants two human bone discs were implanted subcutaneously into 10-week old female NOD SCID mice (n=10/group) under isofluorane anaesthetic. Mice received an injection of 0.003 mg vetergesic and Septrin was added to the drinking water for 1 week following bone implantation. Mice were left for 4 weeks before injecting 1×10^5 MDA-MB-231 Luc2-TdTomato, MCF7 Luc2 or T47D Luc2 cells in 20% Martigel/79% PBS/1% toluene blue into the two hind mammary fat pads. Primary tumor growth and development of metastases was monitored weekly using an IVIS […] system (Caliper Life Sciences) following sub-cutaneous injection of 30 mg/ml D-luciferin (Invitrogen). On termination of experiments mammary tumors, circulating tumor cells, serum and bone metastases were resected. RNA was processed for downstream analysis by real time PCR, and cell lysates were taken for protein analysis and whole tissue for histology as previously described (Nutter et al., 2014; Ottewell et al., 2014a). […] Tumor cells, serum, and bone were subsequently resected for downstream analysis. Bone metastases were investigated following injection of 5×10^5 MDA-MB-231 GFP (control), MDA-MB-231-IV, MDA-MB-231-IL-1B-positive or MDA-MB-231-IL-1R1-positive cells into the lateral tail vein of 6 to 8-week old female BALB/c nude mice (n=12/group). Tumor growth in bones and lungs was monitored weekly by GFP imaging in live animals. Mice were culled 28 days after tumor cell injection at which timepoint hind limbs, lungs and serum were resected and processed for microcomputed tomography imaging (pCT), histology and ELISA analysis of bone turnover markers and circulating cytokines as described (Holen et al., 2016).
Whole blood was centrifuged at 10,000×g for 5 minutes and the serum removed for ELISA assays. The cell pellet was re-suspended in 5 ml of FSM lysis solution (Sigma-Aldrich, Pool, UK) to lyse red blood cells. Remaining cells were re-pelleted, washed 3× in PBS and re-suspended in a solution of PBS/10% FCS. Samples from 10 mice per group were pooled prior to isolation of TdTomato positive tumor cells using a MoFlow High performance cell sorter (Beckman Coulter, Cambridge UK) with the […] laser line from a Coherent I-90C tenable argon ion (Coherent, Santa Clara, Calif.). TdTomato fluorescence was detected by a 555LP dichroic long pass and a 580/30 nm band pass filter. Acquisition and analysis of cells was performed using Summit 4.3 software. After sorting, cells were immediately placed in RNA protect cell reagent (Ambion, Paisley, Renfrew, UK) and stored at −80° C. before RNA extraction. For counting numbers of circulating tumor cells, TdTomato fluorescence was detected using a 561 nm laser and an YL1-A filter (585/16 emission filter). Acquisition and analysis of cells was performed using Attune N×T software.

“canakinumab: high-affinity, fully human monoclonal antibody of the IgG1/k to interleukin-1β” was tested, and the “animals with slower tumor growth” value [1] was 100 % of animals, the “mice with metastasis detected in human bone implants” value ([2]; IL-1Ra 1 mg/kg daily, canakinumab sc every 14 days, from 7 days after tumor cell injection, control 7 out of 10) was 1 out of 10 and the “size of bone metastases” value ([2]; luciferase imaging, vs control group) was “smaller than those detected in the control group”. For the same substance, the “tumor cells counted in whole blood” value ([2]; placebo 108 tumor cells/ml) was 3 tumor cells/ml.
